Here are results for 15 molecules from US5071864A, “Aminoalkyl-substituted 2-aminothiazoles and therapeutic agents containing them” (BASF Aktiengesellschaft, priority 1989, dated 1991).

What is called pKi is the negative decadic logarithm of the Ki, by convention in mol/L.

pKi: −log10 of the molar value. Counter-ions that a name gives are not always drawn.

The target in one experiment is D2 -receptor (Rattus norvegicus, UniProt P61169). Put plainly: Receptor binding test (3H-ADTN, rat striatal membranes). Details: species or system rats (Sprague Dawley).
D2 -receptor, sequence (P61169 whole entry): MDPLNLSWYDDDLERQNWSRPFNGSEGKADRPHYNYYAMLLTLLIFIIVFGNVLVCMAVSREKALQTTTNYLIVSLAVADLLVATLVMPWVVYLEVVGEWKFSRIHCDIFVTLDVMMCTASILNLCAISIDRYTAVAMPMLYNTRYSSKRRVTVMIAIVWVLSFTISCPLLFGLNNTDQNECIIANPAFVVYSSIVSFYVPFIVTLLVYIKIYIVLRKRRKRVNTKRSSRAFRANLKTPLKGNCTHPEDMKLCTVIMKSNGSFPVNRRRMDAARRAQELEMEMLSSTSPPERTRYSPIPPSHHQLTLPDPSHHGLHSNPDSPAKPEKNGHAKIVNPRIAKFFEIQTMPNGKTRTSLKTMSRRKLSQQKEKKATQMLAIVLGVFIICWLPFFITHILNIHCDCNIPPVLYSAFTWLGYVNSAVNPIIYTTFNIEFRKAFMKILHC
Settings: not given
In the case of `Cc1nc(Nc2ccccc2)sc1CCCN1CC=C(c2ccccc2)CC1` [Example 3, 4-methyl-2-phenylamino-5-[3-(4-phenyl-1,2,3,6-tetrahydropyridyl)-propyl]-thiazole dihydrochloride], the negative-log Ki (pKi) is 8.40.
On the same count and under the same terms, then `COc1ccc(-c2nc(N)sc2CCN2CC=C(c3ccccc3)CC2)cc1` [Example 4, 2-Amino-4-(4-methoxyphenyl)-5-[2-(4-phenyl-1,2,3,6-tetrahydropyridyl)-ethyl]-thiazole], with 7.80.
Still for that read-out and setting: then `Nc1nc(-c2cccs2)c(CCN2CC=C(c3ccccc3)CC2)s1` [Example 5, 2-Amino-5-[2-(4-phenyl-1,2,3,6-tetrahydropyridyl)-ethyl]-4-thien-2-ylthiazole dihydrochloride], with 8.00; and `Nc1nc(-c2ccccc2)c(CCN2CC=C(c3ccccc3)CC2)s1` [Example 8, 2-Amino-4-phenyl-5-[2-(4-phenyl-1,2,3,6-tetrahydropyridyl)-ethyl]-thiazole tartrate], with 8.00; and `Cc1nc(N)sc1CCCN1CC=C(c2ccccc2)CC1` [Example 11, 2-Amino-4-methyl-5-[3-(4-phenyl-1,2,3,6-tetrahydropyridyl)-propyl]-thiazoletartrate], with 8.00.

Staying with this experiment, now noted: displacement of 1 nM 3H-ADTN, rat striatum membranes, 0.1 μM SCH 23390, 40 min at 25° C.; read-out: Ki.
Take “2-Methylamino-4-methyl-5-[3-(4-phenylpiperazin-1-yl)-propyl]-thiazole dihydrochloride [Example 1]”: the negative logarithm of the Ki (pKi) was 8.22.
On the same count and under the same terms, then `Cc1nc(N)sc1CCCN(C)CCc1ccccc1` [Example 2, 2-Amino-4-methyl-5-[3-(N-methyl-N-phenethylamino)-propyl]-thiazole fumarate], with 7.70; and `Nc1nc(-c2ccccc2)c(CCCN2CCN(c3ccccc3)CC2)s1` [Example 9, 2-Amino-4-phenyl-5-[3-(4-phenylpiperazin-1-yl)-propyl]-thiazole trihydrochloride], with 7.85.
On the same count and under the same terms, under `CCCN(CCCc1sc(N)nc1C)CCc1ccccc1` [Example 10, 2-Amino-4-methyl-5-[3-(N-phenethyl-N-propylamino)-propyl]-thiazole fumarate] stands 8.00; under `Nc1nc(-c2ccccc2)c(CCCN2CCN(c3ncccn3)CC2)s1` [Example 13, 2-Amino-4-phenyl-5-[3-(4-pyrimid-2-ylpiperazin-1-yl)-propyl]-thiazole tartrate], 8.00.
The same measure, in the same setting: under `Nc1nc(-c2ccccc2)c(CCCN2CCN(c3ccccn3)CC2)s1` [Example 14, 2-Amino-4-phenyl-5-[3-(4-pyrid-2-ylpiperazin-1-yl)-propyl]tartrate] stands 7.82.
For `Nc1nc(-c2ccccc2)c(CCCN2CCN(c3ccccc3Cl)CC2)s1` [Example 18, 2-Amino-5-[3-(4-(2-chlorophenyl)-piperazin-1-yl)-propyl]-4-phenylthiazole tartrate], the pKi was 7.60.
Same read-out and setting: then `Nc1nc(-c2ccccc2)c(CCN2CCN(c3ccccc3[N+](=O)[O-])CC2)s1` [Example 22, 2-Amino-5-[2-(4-(2-nitrophenyl)-piperazin-1-yl)-ethyl]-4-phenylthiazole tartrate], with 7.80; and `CCCN(CCCc1sc(N)nc1-c1ccccc1)CCc1ccccc1` [Example 23, 2-Amino-4-phenyl-5-[3-(N-propyl-N-phenethylamino)-propyl]-thiazole dihydrochloride], with 7.70; and `CCCN(CCCCc1sc(N)nc1C)CCc1ccccc1` [Example 25, 2-Amino-4-methyl-5-[4-(N-propyl-N-phenethylamino)-butyl]-thiazole dihydrochloride], with 8.40.
